Measurements reported in publication PMC4942689, “Deciphering the function of the CNGB1b subunit in olfactory CNG channels” (Scientific Reports, 2016).

Legend:
CNGA2RE:B1b = target: T1, CNGA2RE:B1b (Rattus norvegicus, UniProt A0A8I5ZN27+Q00195, R538E); assay: Ligand binding, confocal patch-clamp fluorometry; parameters: key to Ligand binding to CNGB1b: +: ligand binding to the respective modulatory subunits was either observed or not; −: ligand binding to the respective modulatory subunits was either observed or not; conditions: for Ligand binding to CNGB1b: construct CNGA2RE:B1b
T1 construct: expressed in transfected cells; host or cells: Xenopus laevis oocytes (cRNA injection), excised patches
From the text: (§1) The channels to be studied were expressed in Xenopus oocytes. We first tested the subunit composition in our channels when coexpressing different combinations of subunits by single-channel recordings. For CNGA2:A4, CNGA2:B1b and CNGA2:A4:B1b channels we exclusively obtained the specific and easily distinguishable single-channel activity reported earlier when injecting respective amounts of RNA[7][13]. We therefore assumed that the channels formed had always the expected subunit composition. The specific binding of cyclic nucleotides and the activation of the CNG channels were measured in parallel by means of confocal patch-clamp fluorometry in excised patches, using fluorescent cyclic nucleotide derivatives. The method has been described previously.
To study ligand binding to the CNGB1b subunit selectively, the binding domain of the CNGA2 subunits was disabled by either the point mutation R538E (red crosses in the cartoons) or T539M (blue crosses in the cartoons)[13][20]. […] To this end, CNGB1b was coexpressed with CNGA2RE.
(§2) The ligand binding was measured in macropatches by patch-clamp fluorometry[41][42] combined with confocal microscopy. […] Recordings were performed with an LSM 510 or 710 confocal microscope (Zeiss, Jena, Germany) and were triggered by the ISO3 software (MFK, Niedernhausen, Germany). To distinguish between the fluorescence of the unbound ligands from that of the bound ligands, a second dye, DY647 (Dyomics, Jena, Germany), was added to the bath solution. The 543-nm and 633-nm lines of a He-Ne laser were used to excite fcAMP/fcGMP and DY647, respectively. The method of confocal patch-clamp fluorometry has been described in detail previously.

CNGA2:A4:B1b channels = target: T2, CNGA2:A4:B1b channels (Rattus norvegicus, UniProt A0A8I5ZN27+Q00195+Q64359); assay: Concentration-activation relationship, inside-out patch-clamp; format: biochemical
T2 construct: expressed in transfected cells; host or cells: Xenopus laevis oocytes (cRNA injection 2:1:1), excised inside-out patches
Protocol: (§3) Patch-clamp experiments were performed using an Axopatch 200B amplifier (Molecular Devices LLC, CA, U.S.A.) in the inside-out configuration. The patch pipettes for recording of macroscopic currents were pulled from borosilicate glass tubing (outer diameter 2.0 mm, inner diameter 1.0 mm; Hilgenberg GmbH, Germany). The initial resistance was 0.7–1.3 MΩ. The patches were formed as pushed inside-out patches. […] Cyclic nucleotide concentration jumps were performed using a double-barreled glass pipette mounted on a piezo-driven device. Intracellular (bath) and extracellular (pipette) solutions contained (mM) 150 KCl, 1 EGTA, 5 Hepes, pH = 7.4 with KOH. […] Currents in the absence of the cyclic nucleotide were subtracted. All patches included in this study were first tested for channel expression in the presence of a saturating ligand concentration. Only patches with large current, i.e. a large number of channels, were included in our statistics. The currents were measured at +10 mV or, if mentioned, at +100 mV.
Fits of equations to data points were performed with the 8.1G® software (OriginLab Corporation, Northampton, U.S.A.). Concentration-activation relationships were obtained by relating the actual current amplitude, I, to the maximum current amplitude elicited by a saturating concentration of ligand, Imax, and plotting this ratio as function of the ligand concentration, x. The concentration-activation data were fitted using the Hill equation
where EC50 is the ligand concentration of half maximum effect and H the Hill coefficient.
In fHcAMP the dye DY547 is coupled to
(b) Concentration-activation relationships of the CNGA2:A4:B1b channels activated by either
The currents were recorded […]

CNGA2RE:A4RE:B1b [1] = target: T3, CNGA2RE:A4RE:B1b (Rattus norvegicus, UniProt A0A8I5ZN27+Q00195+Q64359, R430E/R538E); assay: Concentration-activation relationship and activation by fluorescent ligands, patch-clamp; format: biochemical; conditions: 2 μM fHcAMP; of the saturating activation measured with 4 mM cGMP
T3 construct: expressed in transfected cells; host or cells: Xenopus laevis oocytes (cRNA injection), excised inside-out patches
Protocol: as §3, with “In order to determine the apparent affinity of the modulatory subunits in heterotetrameric CNGA2:A4:B1b channels for cGMP, we coexpressed each of them with disabled neighbored subunits, generating themselves activation effects only at much higher ligand concentrations. In case of two well-separated current components, this would allow us to determine the EC50 value for the CNGB1b and CNGA4 subunit in functional heterotetrameric channels. Patch-clamp” for “Patch-clamp”, “The initial resistance was 0.7–1.3 MΩ.” left out, “mV. Fits of equations to data points were performed with the 8.1G® software (OriginLab Corporation, Northampton, U.S.A.). Concentration-activation relationships were obtained by relating the actual current amplitude, I, to the maximum current amplitude elicited by a saturating concentration of ligand, Imax, and plotting this ratio as function of the ligand concentration, x.” for “mV.”

CNGA2RE:A4RE:B1bRE [2] = target: T4, CNGA2RE:A4RE:B1bRE (Rattus norvegicus, UniProt A0A8I5ZN27+Q00195+Q64359, R1106E/R430E/R538E); assay: Channel activation during confocal patch-clamp fluorometry; format: biochemical; conditions: 2 μM fHcAMP; binding domain in CNGB1b also disabled
T4 construct: expressed in transfected cells; host or cells: Xenopus laevis oocytes (cRNA injection), excised inside-out patches
Protocol: (§4) To verify the hypothesis that the CNGB1b subunit in CNGA2:A4:B1b channels binds cyclic nucleotides, we coexpressed CNGB1b with CNGA4RE and either CNGA2RE or CNGA2TM and measured ligand binding in the presence of 10 μM fcGMP. […] To verify the specificity of the binding to the CNGB1b subunit in these heterotetrameric channels, we coexpressed the CNGB1bRE subunit with CNGA2RE and CNGA4RE.
Figure 2 In a CNGA2:A4 background the CNGB1b subunit binds both fcGMP and fHcAMP and activates the channel. (a) Binding of fcGMP to the CNGB1b subunit evokes channel activation. Binding of fcGMP to CNGB1b was observed when coexpressed with either CNGA2RE:A4RE or CNGA2TM:A4RE (upper diagram). […] (b) Binding of fHcAMP to CNGB1b was observed when coexpressed with both CNGA2RE and CNGA4RE. When disabling the binding domain of CNGB1b, the fluorescence intensity was nearly abolished. Correspondingly, CNGA2RE:A4RE:B1b channels were activated by the ligand only when the CNGB1b binding site was available.
as §3, §2

CNGA2RE:A4RE:B1b [3] = target: T3, CNGA2RE:A4RE:B1b; assay: Ligand binding, confocal patch-clamp fluorometry; parameters: key to Ligand binding to CNGA4 / Ligand binding to CNGB1b: +: ligand binding to the respective modulatory subunits was either observed or not; −: ligand binding to the respective modulatory subunits was either observed or not
From the text: as §1, §4, §2

CNGA2RE:A4RE:B1bRE [4] = target: T4, CNGA2RE:A4RE:B1bRE; assay: Ligand binding, confocal patch-clamp fluorometry; parameters: key to Ligand binding to CNGA4 / Ligand binding to CNGB1b: +: ligand binding to the respective modulatory subunits was either observed or not; −: ligand binding to the respective modulatory subunits was either observed or not
From the text: as §1, §4, §2

T4 sequence (Q00195 whole entry R538E, the tested form may be a part): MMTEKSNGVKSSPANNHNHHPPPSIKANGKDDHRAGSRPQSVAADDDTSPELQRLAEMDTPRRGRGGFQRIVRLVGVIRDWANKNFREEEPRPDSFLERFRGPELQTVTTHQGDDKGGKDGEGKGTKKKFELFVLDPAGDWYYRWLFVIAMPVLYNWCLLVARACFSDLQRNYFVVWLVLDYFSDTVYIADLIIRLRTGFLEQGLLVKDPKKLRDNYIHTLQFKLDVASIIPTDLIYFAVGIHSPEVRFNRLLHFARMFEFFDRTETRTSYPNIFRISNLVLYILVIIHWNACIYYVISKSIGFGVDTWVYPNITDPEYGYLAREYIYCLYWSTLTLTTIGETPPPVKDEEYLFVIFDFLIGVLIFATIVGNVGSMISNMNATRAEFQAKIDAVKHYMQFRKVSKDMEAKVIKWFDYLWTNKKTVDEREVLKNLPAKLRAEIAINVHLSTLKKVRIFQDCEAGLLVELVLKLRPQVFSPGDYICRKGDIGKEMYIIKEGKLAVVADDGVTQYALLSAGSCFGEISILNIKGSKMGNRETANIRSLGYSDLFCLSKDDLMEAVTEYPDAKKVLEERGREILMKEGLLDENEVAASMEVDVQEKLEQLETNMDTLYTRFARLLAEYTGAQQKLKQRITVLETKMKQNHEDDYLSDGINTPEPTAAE
T4 sequence (Q64359 whole entry R430E, the tested form may be a part): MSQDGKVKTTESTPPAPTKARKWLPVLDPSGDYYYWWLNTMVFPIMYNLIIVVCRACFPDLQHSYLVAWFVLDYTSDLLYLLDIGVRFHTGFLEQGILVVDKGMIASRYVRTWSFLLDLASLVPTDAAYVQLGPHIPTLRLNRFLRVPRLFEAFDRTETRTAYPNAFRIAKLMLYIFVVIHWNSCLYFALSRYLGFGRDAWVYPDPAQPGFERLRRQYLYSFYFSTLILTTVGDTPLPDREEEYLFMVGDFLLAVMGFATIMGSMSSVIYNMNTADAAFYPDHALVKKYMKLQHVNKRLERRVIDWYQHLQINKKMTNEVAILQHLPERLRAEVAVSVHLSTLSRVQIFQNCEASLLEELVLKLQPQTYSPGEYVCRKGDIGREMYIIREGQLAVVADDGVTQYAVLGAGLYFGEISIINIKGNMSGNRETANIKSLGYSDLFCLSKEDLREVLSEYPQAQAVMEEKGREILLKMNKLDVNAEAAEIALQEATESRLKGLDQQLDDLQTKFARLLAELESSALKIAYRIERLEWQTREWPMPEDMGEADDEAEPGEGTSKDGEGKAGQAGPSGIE
T4 sequence (A0A8I5ZN27 1-858 isoform A0A8I5ZN27-2 R657E): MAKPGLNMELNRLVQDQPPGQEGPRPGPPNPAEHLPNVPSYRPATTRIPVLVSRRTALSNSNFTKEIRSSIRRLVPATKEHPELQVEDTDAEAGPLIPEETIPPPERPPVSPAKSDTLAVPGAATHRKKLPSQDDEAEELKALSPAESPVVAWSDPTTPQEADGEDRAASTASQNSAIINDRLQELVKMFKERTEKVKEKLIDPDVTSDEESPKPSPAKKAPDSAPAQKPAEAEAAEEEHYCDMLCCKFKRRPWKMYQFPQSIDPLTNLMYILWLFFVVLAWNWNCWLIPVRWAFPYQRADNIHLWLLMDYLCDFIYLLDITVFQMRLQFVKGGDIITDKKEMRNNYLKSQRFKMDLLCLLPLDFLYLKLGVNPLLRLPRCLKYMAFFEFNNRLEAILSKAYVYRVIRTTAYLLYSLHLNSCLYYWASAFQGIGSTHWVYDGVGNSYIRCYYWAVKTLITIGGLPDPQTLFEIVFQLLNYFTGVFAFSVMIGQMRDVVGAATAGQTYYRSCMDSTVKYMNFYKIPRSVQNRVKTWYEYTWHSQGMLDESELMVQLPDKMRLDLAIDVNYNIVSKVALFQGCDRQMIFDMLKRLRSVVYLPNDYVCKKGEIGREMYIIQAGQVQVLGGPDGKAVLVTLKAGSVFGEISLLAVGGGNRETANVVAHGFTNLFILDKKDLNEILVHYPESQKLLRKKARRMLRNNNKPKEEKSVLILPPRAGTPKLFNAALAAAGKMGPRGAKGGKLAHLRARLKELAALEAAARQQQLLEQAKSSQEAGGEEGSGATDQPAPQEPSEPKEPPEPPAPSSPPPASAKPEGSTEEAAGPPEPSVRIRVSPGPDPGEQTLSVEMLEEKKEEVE
T3 sequence (Q00195 whole entry R538E): as the sequence (Q00195 whole entry R538E, the tested form may be a part) above
T3 sequence (Q64359 whole entry R430E): as the sequence (Q64359 whole entry R430E, the tested form may be a part) above
T3 sequence (A0A8I5ZN27 1-858 isoform A0A8I5ZN27-2, stated change not applied): as the sequence (A0A8I5ZN27 1-858 isoform A0A8I5ZN27-2 R657E) above, with E657R counted along it
T1 sequence (Q00195 whole entry R538E): as the sequence (Q00195 whole entry R538E, the tested form may be a part) above
T1 sequence (A0A8I5ZN27 1-858 isoform A0A8I5ZN27-2, stated change not applied): as the sequence (A0A8I5ZN27 1-858 isoform A0A8I5ZN27-2 R657E) above, with E657R counted along it
T2 sequence (Q00195 whole entry): as the sequence (Q00195 whole entry R538E, the tested form may be a part) above, with E538R counted along it
T2 sequence (Q64359 whole entry): as the sequence (Q64359 whole entry R430E, the tested form may be a part) above, with E430R counted along it
T2 sequence (A0A8I5ZN27 1-858 isoform A0A8I5ZN27-2): as the sequence (A0A8I5ZN27 1-858 isoform A0A8I5ZN27-2 R657E) above, with E657R counted along it

ligand binding to the CNGB1b subunit (in words) (CNGA2RE:B1b; 10 μM, CNGB1b coexpressed with CNGA2RE)	Ligand binding to CNGB1b (CNGA2RE:B1b; 10 μM)	EC50 (CNGA2:A4:B1b channels; CNGA2:A4:B1b, steady-state, +10 mV, equation (1), 7-10 patches)	H (CNGA2:A4:B1b channels; Hill coefficient, CNGA2:A4:B1b, steady-state, +10 mV)	potency to open CNGA2:A4:B1b channels compared to fcAMP (CNGA2:A4:B1b channels; relative to fcAMP)	channel activation (CNGA2RE:A4RE:B1b [1])	activation (CNGA2RE:A4RE:B1bRE [2])	Ligand binding to CNGB1b (CNGA2RE:B1b; 2 μM)	binding to the CNGB1b subunit (in words) (CNGA2RE:B1b; fHcAMP, CNGA2RE:B1b channels)	binding to the CNGB1b subunit (in words) (CNGA2RE:A4RE:B1b [3]; 2 μM fHcAMP, CNGA2RE:A4RE:B1b channels)	Ligand binding to CNGB1b (CNGA2RE:A4RE:B1b [3]; 2 μM, construct CNGA2RE:A4RE:B1b)	binding to the CNGB1b subunit (in words) (CNGA2RE:A4RE:B1bRE [4]; 2 μM fHcAMP, binding domain in CNGB1b also disabled)	Ligand binding to CNGB1b (CNGA2RE:A4RE:B1bRE [4]; 2 μM, construct CNGA2RE:A4RE:B1bRE)	Substance
no ligand binding	−												8-[DY-547]-AET-cAMP [fcAMP]
		590 nM	1.2	eight times higher potency	3.1 ± 0.7%	abolished	−	did not detectably bind	binds	+	abolished	−	8-[DY-547]-AHT-cAMP [fHcAMP]
